Measurements from ChEMBL document CHEMBL5360551, “Exploration of LPS2 agonist binding modes using the combination of a new hydrophobic scaffold and homology modeling” (Eur J Med Chem, 2023).

Experiments:
[1] = molecular target: Putative P2Y purinoceptor 10 (Mus musculus) (UniProt Q8BFU7); assay: Agonist activity at mouse LPS2/P2Y10 transfected in HEK293-A cells co-transfected with AP-TGFalpha assessed as AP-TGFalpha release by TGFalpha shedding assay relative to LysoPS; type: functional, cell-based; details: filed as agonist
[2] = molecular target: Putative P2Y purinoceptor 10 (Mus musculus, UniProt Q8BFU7); assay: Agonist activity at mouse LPS2/P2Y10 transfected in HEK293-A cells co-transfected with AP-TGFalpha assessed as AP-TGFalpha release by TGFalpha shedding assay; type: functional, cell-based
[3] = molecular target: Probable G-protein coupled receptor 34 (Mus musculus) (UniProt Q9R1K6); assay: Agonist activity at mouse LPS1/GPR34 transfected in HEK293-A cells co-transfected with AP-TGFalpha assessed as AP-TGFalpha release by TGFalpha shedding assay relative to LysoPS; type: functional, cell-based; details: filed as agonist
[4] = molecular target: Probable G-protein coupled receptor 34 (Mus musculus, UniProt Q9R1K6); assay: Agonist activity at mouse LPS1/GPR34 transfected in HEK293-A cells co-transfected with AP-TGFalpha assessed as AP-TGFalpha release by TGFalpha shedding assay; type: functional, cell-based
[5] = molecular target: T1, Putative P2Y purinoceptor 10 (Homo sapiens, UniProt O00398); assay: Agonist activity at human LPS2/P2Y10 transfected in HEK293-A cells co-transfected with AP-TGFalpha assessed as AP-TGFalpha release by TGFalpha shedding assay; type: functional, cell-based
[6] = molecular target: T1, Putative P2Y purinoceptor 10; assay: Agonist activity at human LPS2/P2Y10 transfected in HEK293-A cells co-transfected with AP-TGFalpha assessed as AP-TGFalpha release by TGFalpha shedding assay relative to LysopPS; type: functional, cell-based; details: filed as agonist
[7] = system: Putative P2Y purinoceptor 10 (Homo sapiens), O00398 [V159F]; assay: Agonist activity at N-terminal FLAG-tagged human LPS2/P2Y10 V159F mutant transfected in HEK293-A cells co-transfected with AP-TGFalpha assessed as AP-TGFalpha release by TGFalpha shedding assay relative to LysoPS; type: cell-based; details: filed as agonist
[8] = molecular target: T1, Putative P2Y purinoceptor 10; assay: Agonist activity at wildtype N-terminal FLAG-tagged human LPS2/P2Y10 transfected in HEK293-A cells co-transfected with AP-TGFalpha assessed as AP-TGFalpha release by TGFalpha shedding assay relative to LysoPS; type: functional, cell-based; details: filed as agonist
[9] = system: Putative P2Y purinoceptor 10 (Homo sapiens), O00398 [A163F]; assay: Agonist activity at N-terminal FLAG-tagged human LPS2/P2Y10 A163F mutant transfected in HEK293-A cells co-transfected with AP-TGFalpha assessed as AP-TGFalpha release by TGFalpha shedding assay relative to LysoPS; type: cell-based; details: filed as agonist
[10] = molecular target: Putative P2Y purinoceptor 10 (Homo sapiens, UniProt O00398, A163F); assay: Agonist activity at N-terminal FLAG-tagged human LPS2/P2Y10 A163F mutant transfected in HEK293-A cells co-transfected with AP-TGFalpha assessed as AP-TGFalpha release by TGFalpha shedding assay; type: cell-based
[11] = molecular target: Putative P2Y purinoceptor 10 (Homo sapiens, UniProt O00398, V159F); assay: Agonist activity at N-terminal FLAG-tagged human LPS2/P2Y10 V159F mutant transfected in HEK293-A cells co-transfected with AP-TGFalpha assessed as AP-TGFalpha release by TGFalpha shedding assay; type: cell-based
[12] = molecular target: T1, Putative P2Y purinoceptor 10; assay: Agonist activity at wildtype N-terminal FLAG-tagged human LPS2/P2Y10 transfected in HEK293-A cells co-transfected with AP-TGFalpha assessed as AP-TGFalpha release by TGFalpha shedding assay; type: functional, cell-based

Sequence of Probable G-protein coupled receptor 34 (Mus musculus) (Q9R1K6 whole entry): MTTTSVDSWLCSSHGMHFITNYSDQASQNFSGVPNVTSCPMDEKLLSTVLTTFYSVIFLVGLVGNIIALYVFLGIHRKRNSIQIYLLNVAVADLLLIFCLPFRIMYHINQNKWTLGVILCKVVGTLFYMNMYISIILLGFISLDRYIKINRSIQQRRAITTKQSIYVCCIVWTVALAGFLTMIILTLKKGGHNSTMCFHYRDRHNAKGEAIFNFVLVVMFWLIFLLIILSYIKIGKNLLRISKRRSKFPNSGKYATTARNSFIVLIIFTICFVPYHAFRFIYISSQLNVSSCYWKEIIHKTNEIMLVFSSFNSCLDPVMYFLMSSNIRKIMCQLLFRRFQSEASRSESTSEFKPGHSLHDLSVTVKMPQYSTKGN
Sequence of Probable G-protein coupled receptor 34 (Q9R1K6 whole entry): as above
Sequence of Putative P2Y purinoceptor 10 (Homo sapiens), O00398 [V159F] (O00398 whole entry V159F): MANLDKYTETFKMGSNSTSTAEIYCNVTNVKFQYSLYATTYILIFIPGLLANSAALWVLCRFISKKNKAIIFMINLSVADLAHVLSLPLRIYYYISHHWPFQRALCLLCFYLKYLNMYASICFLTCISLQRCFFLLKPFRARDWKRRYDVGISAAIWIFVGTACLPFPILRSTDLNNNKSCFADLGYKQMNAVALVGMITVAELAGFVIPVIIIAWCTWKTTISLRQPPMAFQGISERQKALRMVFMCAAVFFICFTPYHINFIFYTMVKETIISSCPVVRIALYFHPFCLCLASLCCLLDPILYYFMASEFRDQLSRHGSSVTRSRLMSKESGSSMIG
Sequence of Putative P2Y purinoceptor 10 (Homo sapiens, UniProt O00398, V159F) (O00398 whole entry V159F): as above
Sequence of Putative P2Y purinoceptor 10 (Mus musculus, UniProt Q8BFU7) (Q8BFU7 whole entry): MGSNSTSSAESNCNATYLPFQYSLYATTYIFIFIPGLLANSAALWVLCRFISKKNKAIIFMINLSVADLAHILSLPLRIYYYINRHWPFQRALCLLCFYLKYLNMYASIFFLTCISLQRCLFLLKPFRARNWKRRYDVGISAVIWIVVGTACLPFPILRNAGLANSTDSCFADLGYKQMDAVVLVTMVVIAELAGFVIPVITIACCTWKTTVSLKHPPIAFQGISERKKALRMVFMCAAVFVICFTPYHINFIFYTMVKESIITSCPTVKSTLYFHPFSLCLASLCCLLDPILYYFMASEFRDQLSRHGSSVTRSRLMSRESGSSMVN
Sequence of Putative P2Y purinoceptor 10 (Mus musculus) (Q8BFU7 whole entry): as above
Sequence of Putative P2Y purinoceptor 10 (Homo sapiens, UniProt O00398, A163F) (O00398 whole entry A163F): as the sequence (O00398 whole entry V159F) above, with F159V, A163F counted along it
Sequence of Putative P2Y purinoceptor 10 (Homo sapiens), O00398 [A163F] (O00398 whole entry A163F): as the sequence (O00398 whole entry V159F) above, with F159V, A163F counted along it
T1 sequence (O00398 whole entry): as the sequence (O00398 whole entry V159F) above, with F159V counted along it

| SMILES | Emax [1] [%] | EC50 ([2]; read-out: EC50) [nM] | other results |
| --- | --- | --- | --- |
| CC(C)(C)c1ccc(-c2cccc(COc3ccccc3CCC(=O)OCCCOP(=O)(O)OC[C@H](N)C(=O)O)c2)cc1 | 99 | 35 | Emax [3]: 107%; EC50 [4]: 950 nM |
| CC(C)(C)c1cccc(-c2ccc(Oc3ccccc3CCC(=O)OCCCOP(=O)(O)OC[C@H](N)C(=O)O)cc2)c1 | 115 | 14 | – |
| N[C@@H](COP(=O)(O)OCCCOC(=O)CCc1ccccc1Oc1ccc(-c2ccccc2-c2ccccc2)cc1)C(=O)O | 87 | 6.7 | EC50 ([5]; read-out: EC50): 100 nM; Emax [6]: 113% |
| CCc1ccc(-c2ccc(Oc3ccccc3CCC(=O)OCCCOP(=O)(O)OC[C@H](N)C(=O)O)cc2)cc1 | 98 | 2.6 | – |
| N[C@@H](COP(=O)(O)OCCCOC(=O)CCc1ccccc1Oc1ccc(O)cc1)C(=O)O | – | > 3 | EC50 ([2]; read-out: pEC50 (converted)): < 3160 nM |
| CC(C)(C)c1cccc(Oc2ccccc2CCC(=O)OCCCOP(=O)(O)OC[C@H](N)C(=O)O)c1 | 113 | 400 | – |
| Cc1cc(C)cc(Oc2ccccc2CCC(=O)OCCCOP(=O)(O)OC[C@H](N)C(=O)O)c1 | 114 | 130 | – |
| CC(C)(C)c1cc(-c2cccc(COc3ccccc3CCC(=O)OCCCOP(=O)(O)OC[C@H](N)C(=O)O)c2)cc(C(C)(C)C)c1 | 109 | 28 | EC50 [4]: > 3000 nM |
| N[C@@H](COP(=O)(O)OCCCOC(=O)CCc1ccccc1OCc1cccc(-c2ccccc2)c1)C(=O)O | 131 | 5.7 | EC50 [4]: > 3000 nM |
| N[C@@H](COP(=O)(O)OCCCCOC(=O)CC(=O)CC(=O)Cc1ccccc1Oc1ccc(-c2ccccc2)cc1)C(=O)O | 118 | 31 | – |
| Nc1ccc(Oc2ccccc2CCC(=O)OCCCOP(=O)(O)OC[C@H](N)C(=O)O)cc1 | 59 | 1.6 | EC50 ([2]; read-out: pEC50 (converted)): 1580 nM |
| N[C@@H](COP(=O)(O)OCCCCCOC(=O)CC(=O)Cc1ccccc1Oc1ccc(-c2ccccc2)cc1)C(=O)O | 105 | 240 | – |
| N[C@@H](COP(=O)(O)OCCCOC(=O)CCc1ccccc1Oc1ccc(-c2ccc(-c3ccccc3)cc2)cc1)C(=O)O | 70 | 3.7 | EC50 ([5]; read-out: EC50): 8 nM; Emax [6]: 89% |
| N[C@@H](COP(=O)(O)OCCCOC(=O)CCc1ccccc1OCc1cccc(Oc2ccccc2)c1)C(=O)O | 63 | 90 | EC50 ([2]; read-out: pEC50 (converted)): 93.3 nM; Emax [3]: 124%; EC50 ([4]; hek293-a): 220 nM |
| N#Cc1ccc(Oc2ccccc2CCC(=O)OCCCOP(=O)(O)OC[C@H](N)C(=O)O)cc1 | – | > 3 | EC50 ([2]; read-out: pEC50 (converted)): < 3160 nM |
| CCCCCCCC/C=C\CCCCCCCC(=O)OCCCOP(=O)(O)OC[C@H](N)C(N)=O | 112 | 24 | EC50 [4]: > 3000 nM |
| N[C@@H](COP(=O)(O)OCCCOC(=O)CCc1ccccc1Oc1cccc(-c2ccccc2)c1)C(=O)O | 109 | 29 | EC50 ([5]; read-out: EC50): 62 nM; Emax [6]: 133% |
| N[C@@H](COP(=O)(O)OCCCOC(=O)CC(=O)Cc1ccccc1Oc1ccc(-c2ccccc2)cc1)C(=O)O | 99 | 1.1 | EC50 ([2]; read-out: pEC50 (converted)): 1070 nM |
| CCCCCCCCCCCOc1ccccc1CCC(=O)OCCCOP(=O)(O)OC[C@H](N)C(N)=O | 111 | 2.7 | Emax [3]: 94%; EC50 [4]: 1600 nM |
| N[C@@H](COP(=O)(O)OCCOC(=O)CC(=O)Cc1ccccc1Oc1ccc(-c2ccccc2)cc1)C(=O)O | – | > 3 | EC50 ([2]; read-out: pEC50 (converted)): 6030 nM |
| CC(C)(C)c1ccc(Oc2ccccc2CCC(=O)OCCCOP(=O)(O)OC[C@H](N)C(=O)O)cc1 | 123 | 67 | Emax [7]: 131%; Emax [8]: 119%; Emax [9]: 113%; EC50 [10]: 470 nM; EC50 [11]: 250 nM; EC50 [12]: 180 nM |
| N[C@@H](COP(=O)(O)OCCOC(=O)CC(=O)CC(=O)Cc1ccccc1Oc1ccc(-c2ccccc2)cc1)C(=O)O | 112 | 200 | – |

| SMILES | Emax [1] [%] | EC50 ([2]; read-out: EC50) [nM] | other results |
| --- | --- | --- | --- |
| N[C@@H](COP(=O)(O)OCCCOC(=O)CCc1ccccc1Oc1cc(-c2ccccc2)cc(-c2ccccc2)c1)C(=O)O | 121 | 23 | EC50 ([5]; read-out: EC50): 120 nM; Emax [6]: 152% |
| N[C@@H](COP(=O)(O)OCCCOC(=O)CCc1ccccc1Oc1ccc(C23C[C@H]4C[C@@H](C2)C[C@@H](C3)C4)cc1)C(=O)O | 107 | 57 | Emax [7]: 128%; Emax [8]: 120%; Emax [9]: 137%; EC50 [10]: 390 nM; EC50 [11]: 270 nM; EC50 [12]: 170 nM |
| CCCCCCOc1cccc(COc2ccccc2CCC(=O)OCCCOP(=O)(O)OC[C@H](N)C(N)=O)c1 | 113 | 7.1 | EC50 [4]: > 3000 nM |
| N[C@@H](COP(=O)(O)OCCCCCOC(=O)CC(=O)CC(=O)Cc1ccccc1Oc1ccc(-c2ccccc2)cc1)C(=O)O | 96 | 100 | – |
| Cc1cccc(Oc2ccccc2CCC(=O)OCCCOP(=O)(O)OC[C@H](N)C(=O)O)c1 | 78 | 210 | – |
| N[C@@H](COP(=O)(O)OCCCCOC(=O)CC(=O)Cc1ccccc1Oc1ccc(-c2ccccc2)cc1)C(=O)O | 98 | 140 | – |
| Cc1cc(C)cc(-c2cccc(COc3ccccc3CCC(=O)OCCCOP(=O)(O)OC[C@H](N)C(=O)O)c2)c1 | 114 | 46 | EC50 [4]: > 3000 nM |
| N[C@@H](COP(=O)(O)OCCCOC(=O)CCc1ccccc1Oc1ccccc1)C(=O)O | 93 | 400 | Emax [7]: 98%; Emax [9]: 104%; EC50 [10]: 1600 nM; EC50 [11]: 1500 nM; EC50 [12]: > 3000 nM |
| CCc1ccc(Oc2ccccc2CCC(=O)OCCCOP(=O)(O)OC[C@H](N)C(=O)O)cc1 | 72 | 810 | – |
| CCc1ccccc1-c1ccc(Oc2ccccc2CCC(=O)OCCCOP(=O)(O)OC[C@H](N)C(=O)O)cc1 | 92 | 18 | – |
| Cc1ccccc1Oc1ccccc1CCC(=O)OCCCOP(=O)(O)OC[C@H](N)C(=O)O | 70 | 140 | – |
| Cc1ccc(-c2ccc(Oc3ccccc3CCC(=O)OCCCOP(=O)(O)OC[C@H](N)C(=O)O)cc2)cc1 | 108 | 11 | – |
| CCCCCCCCCCCOc1ccccc1CCC(=O)OCC(F)(F)COP(=O)(O)OC[C@H](N)C(=O)O | 94 | 1.5 | – |
| N[C@@H](COP(=O)(O)OC1CCCO[C@@H]1COC(=O)CCc1ccccc1OCc1cccc(Oc2ccccc2)c1)C(=O)O (stereo partly drawn) | – | – | Emax [3]: 117%; EC50 [4]: 180 nM |
| CC(C)(C)c1cc(Oc2ccccc2CCC(=O)OCCCOP(=O)(O)OC[C@H](N)C(=O)O)cc(C(C)(C)C)c1 | 125 | 200 | – |
| N[C@@H](COP(=O)(O)OCCCOC(=O)CCc1ccccc1Oc1ccc(-c2ccccc2)cc1)C(=O)O | 111 | 9.2 | EC50 ([5]; read-out: EC50): 71 nM; Emax [7]: 131%; Emax [6]: 133%; Emax [8]: 125%; Emax [9]: 122%; EC50 [10]: 33 nM; EC50 [11]: 26 nM; EC50 [12]: 53 nM |
| Cc1cccc(COc2ccccc2CCC(=O)OCCCOP(=O)(O)OC[C@H](N)C(=O)O)c1 | 114 | 340 | – |
| N[C@@H](COP(=O)(O)OCCCOC(=O)CCc1ccccc1Oc1ccc(-c2ccc(C34C[C@H]5C[C@@H](C3)C[C@@H](C4)C5)cc2)cc1)C(=O)O | 68 | 5.3 | – |
| CCc1ccccc1Oc1ccccc1CCC(=O)OCCCOP(=O)(O)OC[C@H](N)C(=O)O | 78 | 170 | – |
| CC(C)(C)c1ccc(-c2ccc(Oc3ccccc3CCC(=O)OCCCOP(=O)(O)OC[C@H](N)C(=O)O)cc2)cc1 | 78 | 3 | – |
| Cc1ccc(Oc2ccccc2CCC(=O)OCCCOP(=O)(O)OC[C@H](N)C(=O)O)cc1 | 88 | 140 | Emax [7]: 117%; Emax [8]: 114%; Emax [9]: 92%; EC50 [10]: 350 nM; EC50 [11]: 660 nM; EC50 [12]: 810 nM |
| N[C@@H](COP(=O)(O)OCCCOC(=O)CCc1ccccc1Oc1ccccc1-c1ccccc1)C(=O)O | 105 | 890 | EC50 ([5]; read-out: EC50): > 3 nM; EC50 ([5]; read-out: pEC50 (converted)): 5130 nM |
